Data taken from the NIST ThermoML archive (doi:10.1021/acs.jced.6b00587).
Numbers after ± are expanded uncertainties.

Details: Liquid, Ebulliometric method (Recirculating still)

CCCCOCC [butyl ethyl ether]
Details | vapor or sublimation pressure [kPa]
336.22 K | 38.6 ± 0.81
340.35 K | 44.96 ± 0.82
344.21 K | 51.67 ± 0.83
346.8 K | 56.24 ± 0.84
348.84 K | 60 ± 0.87
350.44 K | 63.63 ± 0.9
354.01 K | 71.58 ± 0.91
357.31 K | 79.6 ± 0.95
361.44 K | 90.59 ± 0.97
363.47 K | 96.36 ± 0.99
365.25 K | 101.3 ± 0.99

CCCOCCC [dipropyl ether]
Details | vapor or sublimation pressure [kPa]
326.73 K | 29.35 ± 0.78
332.57 K | 36.71 ± 0.79
336.55 K | 42.54 ± 0.81
341.15 K | 49.98 ± 0.83
345.34 K | 57.75 ± 0.85
346.55 K | 60 ± 1
346.63 K | 60 ± 1
347.55 K | 62.3 ± 0.94
352.11 K | 72.36 ± 0.91
354.82 K | 78.97 ± 0.94
356.85 K | 84.25 ± 0.96
358.73 K | 89.3 ± 0.99
361.18 K | 96.32 ± 1
362.87 K | 101.3 ± 1

CCCCCCC [heptane]
Details | vapor or sublimation pressure [kPa]
331.39 K | 26.15 ± 0.77
335.45 K | 30.59 ± 0.78
341.94 K | 38.89 ± 0.79
347.16 K | 46.8 ± 0.81
349.68 K | 50.97 ± 0.83
352.58 K | 56.2 ± 0.84
354.63 K | 60 ± 1
356.78 K | 64.6 ± 0.89
359.38 K | 70.24 ± 0.9
362.11 K | 76.47 ± 0.92
364.95 K | 83.45 ± 0.94
366.87 K | 88.4 ± 1
371.28 K | 101.3 ± 1
